Here are results for 1 compound from the NIST ThermoML archive (doi:10.1016/j.jct.2012.03.031).

The conditions of this data set: Crystal 1; visual observation.

The structures appear in SMILES notation. Numbers after ± are expanded uncertainties.

Take `CCCCc1ccc(C(=O)Oc2ccc(C#N)c(F)c2)cc1` [4-cyano-3-fluorophenyl 4-butylbenzoate]: the Triple point temperature is reported as 288.43 ± 0.39 K.
